Holding throughout (type): functional
Assay [1] relates to Bipolaris oryzae. Description: Antifungal activity against Bipolaris oryzae assessed as fungus colony inhibition at 10 ppm measured after 96 hr by agar dilution method.
For assay [2], the system named is Bipolaris oryzae. Description: Antifungal activity against Bipolaris oryzae assessed as fungus colony inhibition at 100 ppm measured after 96 hr by agar dilution method.
For assay [3], the system named is Bipolaris oryzae. Description: Antifungal activity against Bipolaris oryzae assessed as fungus colony inhibition at 1000 ppm measured after 96 hr by agar dilution method.
Assay [4] has as its system Aspergillus niger. Description: Antifungal activity against Aspergillus niger assessed as fungus colony inhibition at 10 ppm measured after 96 hr by agar dilution method.
Assay [5] relates to Aspergillus niger. Description: Antifungal activity against Aspergillus niger assessed as fungus colony inhibition at 100 ppm measured after 96 hr by agar dilution method.
Assay [6] has as its system Aspergillus niger. Description: Antifungal activity against Aspergillus niger assessed as fungus colony inhibition at 1000 ppm measured after 96 hr by agar dilution method.
A further assay has as its system Setaria viridis. Description: Herbicidal activity against Setaria viridis (green foxtail) assessed as killing at 6 kg/ha by post-emergent activity assay.
The subject of a further assay is Abutilon theophrasti. Description: Herbicidal activity against Abutilon theophrasti (velvetleaf) assessed as killing at 6 kg/ha by post-emergent activity assay.
A further assay has as its system Echinochloa crus-galli. Description: Herbicidal activity against Echinochloa crus-galli (barnyard grass) assessed as killing at 6 kg/ha by post-emergent activity assay.
The test system of the next assay is Sorghum halepense. Description: Herbicidal activity against Sorghum halepense (Johnson grass) assessed as killing at 6 kg/ha by post-emergent activity assay.
The test system of the next assay is Triticum aestivum. Description: Herbicidal activity against Triticum aestivum (wheat) assessed as killing at 6 kg/ha by post-emergent activity assay.

For `CC(=O)NC(=S)Nc1nnc(COc2ccc(C)cc2C)s1`, the inhibition at 10 ppm turned out to be 20.2% in the assay on Bipolaris oryzae [1] and 20.5% in the assay on Aspergillus niger [4]. The inhibition at 100 ppm is 38.4% in the assay on Bipolaris oryzae [2] and 31.4% in the assay on Aspergillus niger [5]. Moreover, the inhibition at 1000 ppm in the assay on Bipolaris oryzae [3] amounted to 60.2%; in the assay with Aspergillus niger [6] it was 55.2%.
For `S=c1nc(COc2ccc(Cl)cc2Cl)n2nc(COc3ccc(Cl)cc3Cl)sc2n1`, the Activity in the assay on Setaria viridis is 100%; with Abutilon theophrasti, 100%; with Echinochloa crus-galli it was 100%; with Sorghum halepense, 100%; in the assay on Triticum aestivum it was 20%. For the same molecule, the inhibition at 10 ppm with Bipolaris oryzae [1] was determined as 61.4%; in the assay with Aspergillus niger [4], 64.5%. Moreover, the inhibition at 100 ppm came to 78.6% with Bipolaris oryzae [2] and 74.4% with Aspergillus niger [5]. For the same molecule, the inhibition at 1000 ppm with Bipolaris oryzae [3] is 90.4%; in the assay with Aspergillus niger [6] it was 88.6%.
In the case of `O=c1c2ccccc2nc2sc(COc3ccc(Cl)cc3Cl)nn12`, the Activity with Setaria viridis was 30%; in the assay on Abutilon theophrasti it was 20%; in the assay on Echinochloa crus-galli, 80%; with Sorghum halepense it was 60%; in the assay with Triticum aestivum, 50%. The figures for the inhibition at 10 ppm with Bipolaris oryzae [1] and in the assay with Aspergillus niger [4] were 23.4% and 12.6%, respectively. The figures for the inhibition at 100 ppm in the assay on Bipolaris oryzae [2] and with Aspergillus niger [5] were 31.8% and 25%, respectively. Moreover, the inhibition at 1000 ppm in the assay with Bipolaris oryzae [3] worked out at 54.4%; in the assay on Aspergillus niger [6] it was 43.1%.
As to `O=C(O)c1ccccc1Nc1nnc(COc2ccccc2Cl)s1`, the inhibition at 10 ppm was 22.2% with Bipolaris oryzae [1] and 14% with Aspergillus niger [4]. The results for the inhibition at 100 ppm with Bipolaris oryzae [2] and in the assay on Aspergillus niger [5] were 30.4% and 25.8%, respectively. Besides, the inhibition at 1000 ppm with Bipolaris oryzae [3] stood at 52.4%; with Aspergillus niger [6] it was 47.3%.
`COC(=O)Nc1nc2ccccc2[nH]1` [CARBENDAZIM]: the inhibition at 10 ppm in the assay on Bipolaris oryzae [1] was 78.3%; with Aspergillus niger [4] it was 78.6%. For the same molecule, the figures for the inhibition at 100 ppm in the assay on Bipolaris oryzae [2] and with Aspergillus niger [5] were 85.2% and 84.4%, respectively. Besides, the inhibition at 1000 ppm with Bipolaris oryzae [3] was determined as 98%; in the assay with Aspergillus niger [6] it was 98.8%.
With `Cc1ccc(OCc2nnc(Nc3ccccc3C(=O)O)s2)cc1`, the inhibition at 10 ppm in the assay with Bipolaris oryzae [1] amounted to 22.2%; in the assay on Aspergillus niger [4] it was 20.9%. For the same molecule, the values for the inhibition at 100 ppm in the assay on Bipolaris oryzae [2] and with Aspergillus niger [5] were 39.1% and 31%, respectively. Also, the inhibition at 1000 ppm in the assay on Bipolaris oryzae [3] is 59.1%; with Aspergillus niger [6], 52.2%.
With `S=c1nc(COc2ccc(Cl)cc2Cl)n2nc(COc3ccc(Cl)cc3)sc2n1`, the Activity turned out to be 20% in the assay on Setaria viridis; 30% in the assay with Abutilon theophrasti; 30% in the assay with Echinochloa crus-galli; 40% in the assay on Sorghum halepense; 50% in the assay with Triticum aestivum. Besides, the inhibition at 10 ppm with Bipolaris oryzae [1] worked out at 60.6%; in the assay with Aspergillus niger [4], 68.4%. For the same molecule, the inhibition at 100 ppm in the assay with Bipolaris oryzae [2] amounted to 75.4%; in the assay on Aspergillus niger [5], 74.2%. Moreover, the inhibition at 1000 ppm in the assay with Bipolaris oryzae [3] was found to be 88.2%; in the assay with Aspergillus niger [6], 87.2%.
As to `O=C(COc1ccc(Cl)cc1Cl)NC(=S)Nc1nnc(COc2ccc(Cl)cc2)s1`, the inhibition at 10 ppm with Bipolaris oryzae [1] came out at 24.2%; in the assay on Aspergillus niger [4], 13%. Moreover, the inhibition at 100 ppm came to 36.2% with Bipolaris oryzae [2] and 25.4% with Aspergillus niger [5]. Besides, the results for the inhibition at 1000 ppm in the assay with Bipolaris oryzae [3] and in the assay on Aspergillus niger [6] were 57.2% and 47%, respectively.
For `Cc1ccc(OCc2nnc(Nc3ccccc3C(=O)O)s2)cc1C`, the inhibition at 10 ppm was found to be 25.2% in the assay on Bipolaris oryzae [1] and 19% in the assay on Aspergillus niger [4]. Moreover, the results for the inhibition at 100 ppm with Bipolaris oryzae [2] and with Aspergillus niger [5] were 30.4% and 29.1%, respectively. Besides, the results for the inhibition at 1000 ppm in the assay with Bipolaris oryzae [3] and in the assay on Aspergillus niger [6] were 57.4% and 50.2%, respectively.
For the molecule `Cc1ccc(OCc2nnc(NC(=S)NC(=O)c3ccc(Cl)cc3)s2)c(C)c1`, the inhibition at 10 ppm was 22.8% in the assay with Bipolaris oryzae [1] and 18.4% in the assay on Aspergillus niger [4]. In addition, the inhibition at 100 ppm came to 32.4% in the assay with Bipolaris oryzae [2] and 29% in the assay with Aspergillus niger [5]. Moreover, the results for the inhibition at 1000 ppm with Bipolaris oryzae [3] and in the assay on Aspergillus niger [6] were 55.2% and 50.3%, respectively.
`Cc1ccc(OCc2nn3c(C)nc(=S)nc3s2)c(C)c1`: the Activity in the assay on Setaria viridis was found to be 10%; in the assay with Abutilon theophrasti, 20%; in the assay on Echinochloa crus-galli it was 40%; in the assay on Sorghum halepense, 60%; in the assay with Triticum aestivum it was 50%. Besides, the inhibition at 10 ppm with Bipolaris oryzae [1] turned out to be 27.4%; in the assay on Aspergillus niger [4], 18.6%. For the same molecule, the results for the inhibition at 100 ppm in the assay with Bipolaris oryzae [2] and in the assay on Aspergillus niger [5] were 39.3% and 30%, respectively. The inhibition at 1000 ppm worked out at 59.5% in the assay on Bipolaris oryzae [3] and 51.4% in the assay on Aspergillus niger [6].
Regarding `Cc1ccc(OCc2nn3c(-c4ccc(Cl)cc4)nc(=S)nc3s2)c(C)c1`, the Activity came out at 90% in the assay on Setaria viridis; 90% in the assay with Abutilon theophrasti; 90% with Echinochloa crus-galli; 80% in the assay with Sorghum halepense; 0% with Triticum aestivum. For the same molecule, the inhibition at 10 ppm turned out to be 31.2% in the assay with Bipolaris oryzae [1] and 20.4% in the assay with Aspergillus niger [4]. In addition, the inhibition at 100 ppm in the assay with Bipolaris oryzae [2] was 49.1%; in the assay on Aspergillus niger [5], 31.4%. The inhibition at 1000 ppm stood at 60% in the assay on Bipolaris oryzae [3] and 52.3% in the assay on Aspergillus niger [6].
For `Cc1ccc(OCc2nn3c(=O)c4ccccc4nc3s2)cc1`, the Activity with Setaria viridis worked out at 40%; with Abutilon theophrasti, 10%; in the assay with Echinochloa crus-galli, 10%; in the assay on Sorghum halepense it was 50%; with Triticum aestivum, 40%. The inhibition at 10 ppm with Bipolaris oryzae [1] was 25.2%; with Aspergillus niger [4], 13.7%. For the same molecule, the inhibition at 100 ppm in the assay on Bipolaris oryzae [2] came out at 35%; in the assay with Aspergillus niger [5], 25.4%. In addition, the inhibition at 1000 ppm with Bipolaris oryzae [3] came out at 56.2%; in the assay with Aspergillus niger [6], 46%.
Regarding `O=c1c2ccccc2nc2sc(COc3ccccc3Cl)nn12`, the Activity in the assay with Setaria viridis is listed as 70%; with Abutilon theophrasti, 20%; in the assay with Echinochloa crus-galli, 20%; with Sorghum halepense, 40%; in the assay with Triticum aestivum, 60%. Moreover, the values for the inhibition at 10 ppm in the assay on Bipolaris oryzae [1] and with Aspergillus niger [4] were 30.8% and 19.2%, respectively. Further, the inhibition at 100 ppm came out at 40.1% in the assay on Bipolaris oryzae [2] and 30.2% in the assay on Aspergillus niger [5]. Further, the inhibition at 1000 ppm with Bipolaris oryzae [3] is 61.4%; with Aspergillus niger [6] it was 51.3%.
`O=C(O)c1ccccc1Nc1nnc(COc2ccc(Cl)cc2Cl)s1`: the inhibition at 10 ppm with Bipolaris oryzae [1] was 60.8%; in the assay with Aspergillus niger [4], 68.5%. The inhibition at 100 ppm in the assay with Bipolaris oryzae [2] worked out at 75.3%; with Aspergillus niger [5] it was 73%. For the same molecule, the inhibition at 1000 ppm in the assay with Bipolaris oryzae [3] stood at 87.4%; with Aspergillus niger [6], 84.8%.
For the molecule `O=C(COc1ccc(Cl)cc1Cl)NC(=S)Nc1nnc(COc2ccc(Cl)cc2Cl)s1`, the values for the inhibition at 10 ppm in the assay with Bipolaris oryzae [1] and with Aspergillus niger [4] were 21.9% and 12.4%, respectively. The inhibition at 100 ppm came to 32% in the assay on Bipolaris oryzae [2] and 25.2% in the assay with Aspergillus niger [5]. Moreover, the inhibition at 1000 ppm with Bipolaris oryzae [3] was 54%; in the assay on Aspergillus niger [6], 46.4%.
Take `Cc1ccc(OCc2nn3c(=O)c4ccccc4nc3s2)cc1C`: the Activity was found to be 50% in the assay with Setaria viridis; 50% in the assay with Abutilon theophrasti; 50% with Echinochloa crus-galli; 60% in the assay on Sorghum halepense; 40% with Triticum aestivum. Also, the inhibition at 10 ppm in the assay with Bipolaris oryzae [1] is 21.3%; in the assay with Aspergillus niger [4], 12.8%. Moreover, the inhibition at 100 ppm in the assay on Bipolaris oryzae [2] was 38.6%; in the assay with Aspergillus niger [5], 24.4%. The inhibition at 1000 ppm is 50.2% in the assay with Bipolaris oryzae [3] and 42.2% in the assay on Aspergillus niger [6].

These data come from ChEMBL document CHEMBL3046580, “Synthesis of Some 2-Aryloxymethyl-1, 3, 4-thiadiazolo[2, 3-b]-quinazolin-4-ones and 2-Aryloxymethyl-5-substituted-1, 3, 4-thiadiazolo[3, 2-a]-s-triazin-7-thiones as Potential Biocides” (1990).
